PMC5933782, “Molecular structures of cdc2-like kinases in complex with a new inhibitor chemotype” (PLoS ONE, 2018)

Columns and labels:
Assay in all cases: radiometric protein kinase assay
DYRK3 = biological target: T1, DYRK3 (Homo sapiens, UniProt O43781); type: biochemical; settings: for Residual enzyme activity DYRK 3: 10 µM concentration, ± SEM; for IC50: 15 μmol/L ATP, read-out: IC50 DYRK 3
T1 sequence (O43781 1-588): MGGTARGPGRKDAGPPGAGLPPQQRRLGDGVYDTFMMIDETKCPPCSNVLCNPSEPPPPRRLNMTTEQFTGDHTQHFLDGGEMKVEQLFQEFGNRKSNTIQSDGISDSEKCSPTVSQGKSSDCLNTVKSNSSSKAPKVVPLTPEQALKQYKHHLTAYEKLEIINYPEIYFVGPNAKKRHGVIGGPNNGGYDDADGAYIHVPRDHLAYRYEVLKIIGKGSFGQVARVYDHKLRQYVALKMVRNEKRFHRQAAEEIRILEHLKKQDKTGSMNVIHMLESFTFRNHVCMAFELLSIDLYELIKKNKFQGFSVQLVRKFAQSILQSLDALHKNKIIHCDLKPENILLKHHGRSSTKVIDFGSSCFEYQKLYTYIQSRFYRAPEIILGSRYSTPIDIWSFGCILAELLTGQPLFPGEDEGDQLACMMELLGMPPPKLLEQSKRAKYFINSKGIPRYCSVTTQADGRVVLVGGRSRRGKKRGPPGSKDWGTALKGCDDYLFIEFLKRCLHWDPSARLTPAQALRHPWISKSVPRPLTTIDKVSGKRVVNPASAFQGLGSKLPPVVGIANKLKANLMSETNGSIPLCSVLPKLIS

CDK1/cyclin B = type: biochemical, starfish; settings: for Residual enzyme activity CDK1/cyclin B: 10 µM concentration, ± SEM; for IC50: 15 μmol/L ATP
GSK-3 = type: biochemical, porcine; settings: for Residual enzyme activity GSK3: 10 µM concentration, ± SEM; for IC50: 15 μmol/L ATP, read-out: IC50 GSK3
CLK3 = CLK3 (Mus musculus, UniProt O35492); settings: for Residual enzyme activity CLK 3: 10 µM concentration, ± SEM
Chain of CLK3 (O35492 whole entry): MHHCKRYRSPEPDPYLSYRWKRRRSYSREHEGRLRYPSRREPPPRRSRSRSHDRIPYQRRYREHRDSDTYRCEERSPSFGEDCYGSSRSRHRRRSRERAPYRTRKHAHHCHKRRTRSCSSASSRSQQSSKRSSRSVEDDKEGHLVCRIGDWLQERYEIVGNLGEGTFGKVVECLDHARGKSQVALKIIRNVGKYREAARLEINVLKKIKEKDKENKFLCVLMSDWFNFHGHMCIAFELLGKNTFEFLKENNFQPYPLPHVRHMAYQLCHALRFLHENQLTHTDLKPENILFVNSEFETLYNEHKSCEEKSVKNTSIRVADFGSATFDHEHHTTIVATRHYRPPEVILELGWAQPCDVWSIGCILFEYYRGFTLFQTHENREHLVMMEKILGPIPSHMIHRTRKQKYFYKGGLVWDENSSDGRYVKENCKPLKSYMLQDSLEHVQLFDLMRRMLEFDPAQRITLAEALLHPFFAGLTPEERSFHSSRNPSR
Method: (§1) Buffers. Buffer A: 10 mM MgCl2, 1 mM EGTA, 1 mM DTT, 25 mM Tris-HCl pH 7.5, 50 μg heparin/mL. Buffer C: 60 mM β-glycerophosphate, 15 mM p-nitrophenylphosphate, 25 mM MOPS (pH 7.2), 15 mM EGTA, 15 mM MgCl2, 1 mM DTT, 1 mM sodium vanadate, 1 mM phenylphosphate.
(§2) Kinase activities were assayed in buffer A or C at 30°C at a final ATP concentration of 15 μmol/L. Blank values were subtracted and activities were expressed in percent of the maximal activity, i.e. in the absence of inhibitors. Controls were performed with appropriate dilutions of DMSO.
(§3) Their kinase activity was assayed in buffer A, with 1 mg histone H1/mL, in the presence of 15 μmol/L [γ-33P] ATP (3,000 Ci/mmol; 10 mCi/mL) in a final volume of 30 μL. After 30 min incubation at 30°C, the reaction was stopped by harvesting onto P81 phosphocellulose supernatant (Whatman) using a FilterMate harvester (Packard) and washing in 1% phosphoric acid. Scintillation fluid was added and the radioactivity measured in a Packard counter.
(§4) All data points for construction of dose response curves were recorded in triplicate.

CK1δ/ε = type: biochemical, porcine; settings: for Residual enzyme activity CK1: 10 µM concentration, ± SEM; for IC50: 15 μmol/L ATP, read-out: IC50 CK1
DYRK1B = DYRK1B (Homo sapiens, UniProt Q9Y463); type: biochemical; settings: for Residual enzyme activity DYRK 1B: 10 µM concentration, ± SEM; for IC50: 15 μmol/L ATP, read-out: IC50 DYRK 1B
Chain of DYRK1B (Q9Y463 whole entry): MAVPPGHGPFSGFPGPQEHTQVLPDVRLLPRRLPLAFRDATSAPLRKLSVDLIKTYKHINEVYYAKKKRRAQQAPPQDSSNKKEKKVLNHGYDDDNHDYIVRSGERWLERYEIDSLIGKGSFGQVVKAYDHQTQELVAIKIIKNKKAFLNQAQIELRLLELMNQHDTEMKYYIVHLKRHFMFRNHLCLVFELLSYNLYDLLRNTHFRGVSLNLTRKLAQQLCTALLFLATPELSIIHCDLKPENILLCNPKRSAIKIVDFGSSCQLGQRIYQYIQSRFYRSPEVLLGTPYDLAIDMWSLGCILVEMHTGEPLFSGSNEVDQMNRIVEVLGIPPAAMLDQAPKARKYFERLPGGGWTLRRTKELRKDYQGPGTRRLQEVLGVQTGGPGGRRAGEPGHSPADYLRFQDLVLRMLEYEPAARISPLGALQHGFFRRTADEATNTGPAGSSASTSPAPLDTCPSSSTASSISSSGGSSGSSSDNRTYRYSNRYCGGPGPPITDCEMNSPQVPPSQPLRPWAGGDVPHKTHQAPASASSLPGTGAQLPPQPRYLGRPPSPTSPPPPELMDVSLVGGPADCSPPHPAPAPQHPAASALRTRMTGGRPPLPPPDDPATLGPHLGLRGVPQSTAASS

CLK2 = CLK2 (Mus musculus, UniProt O35491); settings: for Residual enzyme activity CLK 2: 10 µM concentration, ± SEM
Chain of CLK2 (O35491 whole entry): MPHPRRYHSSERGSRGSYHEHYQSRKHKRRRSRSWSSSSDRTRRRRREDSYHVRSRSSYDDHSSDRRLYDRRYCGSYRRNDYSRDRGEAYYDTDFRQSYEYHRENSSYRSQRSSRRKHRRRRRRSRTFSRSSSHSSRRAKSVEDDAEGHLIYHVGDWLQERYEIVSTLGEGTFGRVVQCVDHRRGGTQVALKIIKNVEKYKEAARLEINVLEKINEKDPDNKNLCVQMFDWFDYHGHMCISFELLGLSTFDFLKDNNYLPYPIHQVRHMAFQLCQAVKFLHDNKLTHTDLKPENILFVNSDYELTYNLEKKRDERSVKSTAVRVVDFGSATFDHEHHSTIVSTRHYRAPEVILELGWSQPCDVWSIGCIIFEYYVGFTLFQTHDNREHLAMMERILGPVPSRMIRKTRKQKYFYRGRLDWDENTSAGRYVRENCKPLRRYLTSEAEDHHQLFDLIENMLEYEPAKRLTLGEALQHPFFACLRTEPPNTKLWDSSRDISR
Method: as §1, §2, §3, §4

CDK2/cyclin A = biological target: T2, CDK2/cyclin A (Homo sapiens, UniProt P24941); type: biochemical; settings: for Residual enzyme activity CDK2/cyclin A: 10 µM concentration, ± SEM; for IC50: 15 μmol/L ATP, read-out: IC50 CDK2/cyclinA
T2 construct: made in house

DYRK2 = biological target: T3, DYRK2 (Homo sapiens, UniProt Q92630); type: biochemical; settings: for Residual enzyme activity DYRK 2: 10 µM concentration, ± SEM; for IC50: 15 μmol/L ATP, read-out: IC50 DYRK 2
T3 sequence (Q92630 1-601): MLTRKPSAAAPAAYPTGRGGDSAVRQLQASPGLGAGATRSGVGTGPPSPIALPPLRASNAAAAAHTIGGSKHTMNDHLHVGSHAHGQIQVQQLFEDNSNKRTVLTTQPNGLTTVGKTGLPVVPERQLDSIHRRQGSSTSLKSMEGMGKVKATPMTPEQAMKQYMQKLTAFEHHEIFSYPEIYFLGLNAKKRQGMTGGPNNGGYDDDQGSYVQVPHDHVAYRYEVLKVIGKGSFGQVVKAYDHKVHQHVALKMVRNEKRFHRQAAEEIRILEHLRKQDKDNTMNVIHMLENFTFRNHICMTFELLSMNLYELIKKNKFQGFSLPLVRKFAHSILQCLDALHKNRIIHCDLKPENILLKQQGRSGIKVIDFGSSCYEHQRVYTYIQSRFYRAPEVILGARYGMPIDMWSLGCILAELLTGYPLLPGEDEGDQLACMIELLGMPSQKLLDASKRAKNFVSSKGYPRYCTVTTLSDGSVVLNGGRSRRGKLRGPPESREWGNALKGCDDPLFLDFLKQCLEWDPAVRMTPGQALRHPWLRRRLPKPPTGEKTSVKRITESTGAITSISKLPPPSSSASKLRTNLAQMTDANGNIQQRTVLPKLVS

DYRK1A = DYRK1A (Homo sapiens, UniProt Q13627); type: biochemical; settings: for Residual enzyme activity DYRK 1A: 10 µM concentration, ± SEM; for IC50: 15 μmol/L ATP, read-out: IC50 DYRK 1A
CLK1 = CLK1 (Mus musculus, UniProt P22518); settings: for Residual enzyme activity CLK 1: 10 µM concentration, ± SEM
Chain of CLK1 (P22518 whole entry): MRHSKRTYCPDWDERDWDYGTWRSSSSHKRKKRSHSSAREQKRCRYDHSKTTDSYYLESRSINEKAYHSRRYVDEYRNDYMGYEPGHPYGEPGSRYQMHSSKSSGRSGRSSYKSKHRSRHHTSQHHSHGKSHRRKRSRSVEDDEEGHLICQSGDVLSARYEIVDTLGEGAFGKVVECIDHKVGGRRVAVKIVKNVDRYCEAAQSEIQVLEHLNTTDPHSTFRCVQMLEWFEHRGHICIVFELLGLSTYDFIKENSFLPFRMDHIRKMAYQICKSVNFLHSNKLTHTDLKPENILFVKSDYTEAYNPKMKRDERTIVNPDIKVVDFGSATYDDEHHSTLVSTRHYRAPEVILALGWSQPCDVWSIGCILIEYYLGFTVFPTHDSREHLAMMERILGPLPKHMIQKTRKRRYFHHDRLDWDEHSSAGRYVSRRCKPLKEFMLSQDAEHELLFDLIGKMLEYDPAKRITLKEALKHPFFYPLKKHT
Method: Buffer A: 10 mM MgCl2, 1 mM EGTA, 1 mM DTT, 25 mM Tris-HCl pH 7.5, 50 μg heparin/mL. Buffer C: 60 mM β-glycerophosphate, 15 mM p-nitrophenylphosphate, 25 mM MOPS (pH 7.2), 15 mM EGTA, 15 mM MgCl2, 1 mM DTT, 1 mM sodium vanadate, 1 mM phenylphosphate.
Controls were performed with appropriate dilutions of DMSO. The GS-1, CKS, CDK7/9 tide and RS peptide substrates were obtained from Proteogenix (Oberhausbergen, France).
CDK1/cyclin B (M phase starfish oocytes, native), CDK2/cyclin A and CDK5/p25 (human, recombinant) were prepared as previously described [33]. […] ATP (3,000 Ci/mmol; 10 mCi/mL) in a final volume of 30 μL. After 30 min incubation at 30°C, the reaction was stopped by harvesting onto P81 phosphocellulose supernatant (Whatman) using a FilterMate harvester (Packard) and washing in 1% phosphoric acid. Scintillation fluid was added and the radioactivity measured in a Packard counter.
as §4

CDK9/cyclin T = CDK9/cyclin T (Homo sapiens, UniProt P50750); settings: for Residual enzyme activity CDK9/cyclin T: 10 µM concentration, ± SEM
Chain of CDK9/cyclin T (P50750 whole entry): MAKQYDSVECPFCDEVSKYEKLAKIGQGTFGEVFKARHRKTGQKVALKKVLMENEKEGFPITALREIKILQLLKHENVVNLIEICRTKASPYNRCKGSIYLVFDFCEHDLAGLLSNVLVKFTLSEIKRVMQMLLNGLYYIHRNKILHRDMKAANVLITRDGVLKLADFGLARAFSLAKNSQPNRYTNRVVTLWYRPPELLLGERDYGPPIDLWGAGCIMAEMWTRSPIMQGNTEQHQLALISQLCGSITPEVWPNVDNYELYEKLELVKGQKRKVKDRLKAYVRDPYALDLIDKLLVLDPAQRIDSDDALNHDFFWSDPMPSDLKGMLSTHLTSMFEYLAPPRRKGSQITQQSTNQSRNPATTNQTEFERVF
Chain of CDK9/cyclin T (O60563 whole entry partner): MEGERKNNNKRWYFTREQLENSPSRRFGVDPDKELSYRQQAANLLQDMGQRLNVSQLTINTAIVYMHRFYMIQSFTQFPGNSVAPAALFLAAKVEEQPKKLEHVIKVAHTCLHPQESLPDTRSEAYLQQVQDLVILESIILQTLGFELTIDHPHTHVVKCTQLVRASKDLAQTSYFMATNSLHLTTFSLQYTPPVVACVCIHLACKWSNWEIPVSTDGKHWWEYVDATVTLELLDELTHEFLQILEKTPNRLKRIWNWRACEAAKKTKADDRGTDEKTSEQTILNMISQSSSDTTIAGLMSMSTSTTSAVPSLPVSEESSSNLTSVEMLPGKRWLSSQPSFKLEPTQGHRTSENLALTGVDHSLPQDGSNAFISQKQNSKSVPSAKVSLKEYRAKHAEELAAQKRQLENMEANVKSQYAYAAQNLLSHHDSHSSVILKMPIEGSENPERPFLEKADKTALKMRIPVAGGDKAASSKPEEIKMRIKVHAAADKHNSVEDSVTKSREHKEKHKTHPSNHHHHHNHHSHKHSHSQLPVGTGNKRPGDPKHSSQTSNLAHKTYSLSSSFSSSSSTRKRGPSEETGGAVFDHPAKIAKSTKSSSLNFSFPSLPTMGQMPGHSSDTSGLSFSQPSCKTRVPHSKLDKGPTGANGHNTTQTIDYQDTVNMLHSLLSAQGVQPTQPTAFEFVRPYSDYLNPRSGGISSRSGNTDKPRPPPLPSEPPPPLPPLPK
Method: as §1, §2, §3, §4

CLK4 = CLK4 (Mus musculus, UniProt O35493); settings: for Residual enzyme activity CLK 4: 10 µM concentration, ± SEM
Chain of CLK4 (O35493 whole entry): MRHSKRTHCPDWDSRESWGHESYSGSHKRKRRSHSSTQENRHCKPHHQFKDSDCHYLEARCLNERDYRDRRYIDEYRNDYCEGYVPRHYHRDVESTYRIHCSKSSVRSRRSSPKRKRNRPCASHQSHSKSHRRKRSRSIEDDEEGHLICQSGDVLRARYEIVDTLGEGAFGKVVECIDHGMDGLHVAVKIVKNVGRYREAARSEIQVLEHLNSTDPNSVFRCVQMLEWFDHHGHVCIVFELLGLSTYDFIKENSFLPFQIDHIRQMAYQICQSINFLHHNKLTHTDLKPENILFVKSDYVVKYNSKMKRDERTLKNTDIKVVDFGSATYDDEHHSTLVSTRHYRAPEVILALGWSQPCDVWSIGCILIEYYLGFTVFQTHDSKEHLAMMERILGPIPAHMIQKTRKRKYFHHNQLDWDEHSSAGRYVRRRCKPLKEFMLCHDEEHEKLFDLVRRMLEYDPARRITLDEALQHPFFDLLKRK
Method: as §1, §2, §3, §4

CDK5/p25 = biological target: T4, CDK5/p25 (Homo sapiens, UniProt Q00535); type: biochemical; settings: for Residual enzyme activity CDK5/p25: 10 µM concentration, ± SEM; for IC50: 15 μmol/L ATP
T4 construct: made in house
T4 sequence (Q00535 whole entry): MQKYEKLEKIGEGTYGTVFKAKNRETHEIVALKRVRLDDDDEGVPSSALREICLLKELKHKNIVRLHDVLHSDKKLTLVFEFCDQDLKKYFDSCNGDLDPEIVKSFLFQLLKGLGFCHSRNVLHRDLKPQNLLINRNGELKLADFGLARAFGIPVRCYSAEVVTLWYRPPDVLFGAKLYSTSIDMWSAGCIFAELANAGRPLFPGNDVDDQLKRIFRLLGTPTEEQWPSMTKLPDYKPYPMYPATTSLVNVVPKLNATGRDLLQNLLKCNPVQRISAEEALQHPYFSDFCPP
T4 sequence (Q15078 99-307 partner limits assumed): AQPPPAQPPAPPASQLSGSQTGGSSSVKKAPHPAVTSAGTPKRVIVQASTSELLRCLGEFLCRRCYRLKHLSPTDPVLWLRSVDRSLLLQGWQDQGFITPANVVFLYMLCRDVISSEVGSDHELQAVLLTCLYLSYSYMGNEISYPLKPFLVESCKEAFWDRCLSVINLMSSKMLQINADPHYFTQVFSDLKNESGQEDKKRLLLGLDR

| Structure (SMILES) | Residual enzyme activity DYRK 3 (DYRK3) | Residual enzyme activity CDK1/cyclin B (CDK1/cyclin B) | Residual enzyme activity GSK3 (GSK-3) | Residual enzyme activity CLK 3 (CLK3) | Residual enzyme activity CK1 (CK1δ/ε) | Residual enzyme activity DYRK 1B (DYRK1B) | IC50 (DYRK3) | IC50 (CDK1/cyclin B) | IC50 (GSK-3) | IC50 (CLK3) | IC50 (CK1δ/ε) | IC50 (DYRK1B) | IC50 (CLK2) | IC50 (CDK2/cyclin A) | IC50 (DYRK2) | IC50 (DYRK1A) | IC50 (CLK1) | IC50 (CDK9/cyclin T) | IC50 (CLK4) | IC50 (CDK5/p25) | also measured |
| --- | --- | --- | --- | --- | --- | --- | --- | --- | --- | --- | --- | --- | --- | --- | --- | --- | --- | --- | --- | --- | --- |
| Cc1[nH]c2c3c(ccc2c1C)C(=O)NC3=O [S19] | 57±3% | 81±27% | 51±5% | 91±11% | 65±5% | 39±5% | – | – | – | – | – | – | – | – | – | – | – | – | – | – | Residual enzyme activity CLK 2 (CLK2): 33±7%; Residual enzyme activity CDK2/cyclin A (CDK2/cyclin A): 108±8%; Residual enzyme activity DYRK 2 (DYRK2): 20±5%; Residual enzyme activity DYRK 1A (DYRK1A): 41±8%; Residual enzyme activity CLK 1 (CLK1): 52±10%; Residual enzyme activity CDK9/cyclin T (CDK9/cyclin T): 90±5%; Residual enzyme activity CLK 4 (CLK4): 21±1%; Residual enzyme activity CDK5/p25 (CDK5/p25): 94±4% |
| Cc1c(-c2ccccc2)[nH]c2c3c(ccc12)CNC3=O [S18c] | 91±17% | 77±26% | 112±2% | 93±9% | 57±5% | 50±7% | – | – | – | – | – | – | – | – | – | – | – | – | – | – | Residual enzyme activity CLK 2 (CLK2): 30±1%; Residual enzyme activity CDK2/cyclin A (CDK2/cyclin A): 109±8%; Residual enzyme activity DYRK 2 (DYRK2): 57±25%; Residual enzyme activity DYRK 1A (DYRK1A): 58±7%; Residual enzyme activity CLK 1 (CLK1): 29±4%; Residual enzyme activity CDK9/cyclin T (CDK9/cyclin T): 89±6%; Residual enzyme activity CLK 4 (CLK4): 10±0%; Residual enzyme activity CDK5/p25 (CDK5/p25): 105±11% |
| CCc1c(-c2ccccc2)[nH]c2c3c(ccc12)CNC3=O [S18d] | 87±5% | 109±30% | 111±7% | 110±16% | 86±3% | 65±8% | – | – | – | – | – | – | – | – | – | – | – | – | – | – | Residual enzyme activity CLK 2 (CLK2): 66±5%; Residual enzyme activity CDK2/cyclin A (CDK2/cyclin A): 104±2%; Residual enzyme activity DYRK 2 (DYRK2): 50±6%; Residual enzyme activity DYRK 1A (DYRK1A): 74±14%; Residual enzyme activity CLK 1 (CLK1): 66±3%; Residual enzyme activity CDK9/cyclin T (CDK9/cyclin T): 100±10%; Residual enzyme activity CLK 4 (CLK4): 38±3%; Residual enzyme activity CDK5/p25 (CDK5/p25): 112±11% |
| Cc1cccc(-c2c[nH]c3c4c(ccc23)CNC4=O)c1 [8i, 3-(3-Methylphenyl)-6,7-dihydropyrrolo[3,4-g]indol-8(1H)-one] | – | – | – | – | – | – | > 10 µM | > 10 µM | > 10 µM | 5.1 µM | > 10 µM | 4.1 µM | 0.41 µM | > 10 µM | 3.1 µM | 2.6 µM | 0.061 µM | > 10 µM | 0.14 µM | > 10 µM | – |
| Cc1[nH]c2c3c(c(Br)cc2c1-c1ccccc1)CNC3=O [12b, 5-Bromo-2-methyl-3-phenyl-6,7-dihydropyrrolo[3,4-g]indol-8(1H)-one] | – | – | – | – | – | – | 0.12 µM | > 10 µM | > 10 µM | 7.1 µM | > 10 µM | 0.11 µM | 0.025 µM | > 10 µM | 0.11 µM | 0.11 µM | 0.023 µM | > 10 µM | < 0.03 µM | > 10 µM | – |
| O=C1NCc2ccc3c(-c4cccc(O)c4)c[nH]c3c21 [8g, 3-(3-Hydroxyphenyl)-6,7-dihydropyrrolo[3,4-g]indol-8(1H)-one] | – | – | – | – | – | – | 2.2 µM | > 10 µM | > 10 µM | 1.7 µM | > 10 µM | 0.39 µM | 0.082 µM | > 10 µM | 0.59 µM | 0.74 µM | 0.044 µM | 1.1 µM | 0.081 µM | > 10 µM | – |
| Cc1[nH]c2c3c(ccc2c1C)CNC3=O [S18b] | 89±8% | 93±26% | 135±18% | 104±14% | 75±3% | 77±11% | – | – | – | – | – | – | – | – | – | – | – | – | – | – | Residual enzyme activity CLK 2 (CLK2): 63±17%; Residual enzyme activity CDK2/cyclin A (CDK2/cyclin A): 103±2%; Residual enzyme activity DYRK 2 (DYRK2): 61±4%; Residual enzyme activity DYRK 1A (DYRK1A): 82±5%; Residual enzyme activity CLK 1 (CLK1): 92±8%; Residual enzyme activity CDK9/cyclin T (CDK9/cyclin T): 104±7%; Residual enzyme activity CLK 4 (CLK4): 48±6%; Residual enzyme activity CDK5/p25 (CDK5/p25): 111±18% |
| O=C1NCc2c(-c3ccccc3)cc3c(-c4ccccc4)c[nH]c3c21 [17a, 3,5-Diphenyl-6,7-dihydropyrrolo[3,4-g]indol-8(1H)-one] | – | – | – | – | – | – | > 10 µM | > 10 µM | > 10 µM | > 10 µM | > 10 µM | > 10 µM | 7.2 µM | > 10 µM | > 10 µM | > 10 µM | 8.8 µM | > 10 µM | 1.3 µM | > 10 µM | – |
| CC(=O)Oc1cccc(-c2c[nH]c3c4c(ccc23)CNC4=O)c1 [8h, 3-(8-Oxo-1,6,7,8-tetrahydropyrrolo[3,4-g]indol-3-yl)phenyl acetate] | – | – | – | – | – | – | 6.1 µM | > 10 µM | > 10 µM | 3.3 µM | > 10 µM | 1.5 µM | 0.32 µM | > 10 µM | 2.4 µM | 1.4 µM | 0.17 µM | > 10 µM | 0.13 µM | > 10 µM | – |
| CN1Cc2ccc3c(-c4ccccc4)c[nH]c3c2C1=O [12d, 7-Methyl-3-phenyl-6,7-dihydropyrrolo[3,4-g]indol-8(1H)-one] | – | – | – | – | – | – | > 10 µM | > 10 µM | > 10 µM | > 10 µM | > 10 µM | > 10 µM | > 10 µM | > 10 µM | > 10 µM | > 10 µM | > 10 µM | > 10 µM | > 10 µM | > 10 µM | – |
| O=C1NCc2ccc3c(-c4ccc(Cl)c(Cl)c4)c[nH]c3c21 [8e, 3-(3,4-Dichlorophenyl)-6,7-dihydropyrrolo[3,4-g]indol-8(1H)-one] | – | – | – | – | – | – | > 10 µM | > 10 µM | > 10 µM | > 10 µM | > 10 µM | > 10 µM | 0.69 µM | > 10 µM | > 10 µM | > 10 µM | 0.11 µM | > 10 µM | 0.13 µM | > 10 µM | – |
| NC(=O)Cn1cc(-c2ccccc2)c2ccc3c(c21)C(=O)NC3 [15c, 2-(8-Oxo-3-phenyl-7,8-dihydropyrrolo[3,4-g]indol-1(6H)-yl)acetamide] | – | – | – | – | – | – | > 10 µM | > 10 µM | > 10 µM | > 10 µM | > 10 µM | > 10 µM | > 10 µM | > 10 µM | > 10 µM | > 10 µM | > 10 µM | > 10 µM | > 10 µM | > 10 µM | – |
